The target in the assay is human Kv7.2 (Homo sapiens (Human), UniProt O43526). Briefly: SyncroPatch 384 electrophysiology, activation of Kv7.2 in CHO cells. The following applies: for EC50: CHO cells stably expressing human Kv7.2, potassium current at -90 mV repolarizing step, in presence of zinc pyrithione; for Emax: CHO, Kv7.2 activation max %, relative to 30 μM ML-213 max activation. The class given is cell-based. As to the method:
The potency of Kv7 potentiators was determined using the SyncroPatch 384 (Nanion) high throughput electrophysiology platform.
CHO cells stably expressing either human Kv7.2, Kv7.4 or Kv7.5/7.3 under a constitutive CMV promoter were used for these studies. Cells were maintained in F12 Hams+1 mM L-glutamine (Hyclone) supplemented with 10% FBS (Sigma), 0.3×NEAA (Non-essential Gamino-acids) and 400 ug/ml G418 at 37° C. in 5% CO2. Cells were cultured in T-225 flasks (Nunc) for 2-3 days to reach 85-95% confluence prior to electrophysiological recording.
Earle's balanced salt solution (in mM): 135 NaCl, 5.4 KCl, 5 Glucose, 2 CaCl2, 1 MgCl2, 5 HEPES, pH 7.4. Seal enhancer solution (in mM): 90 NaCl, 3 KCl, 35 CaCl2, 10 MgCl2, 10 HEPES, pH 7.4. Extracellular recording solution (in mM): 71 NaCl, 70 NMDG, 13 KCl, 5 Glucose, 2 CaCl2, 1 MgCl2, 10 HEPES, pH 7.4. Intracellular recording solution (in mM): 130 KF, 20 KCl, 4 EGTA, 10 HEPES, 2 EDTA, 0.01 Escin, pH 7.2.
Cells were harvested for electrophysiological recording upon reaching appropriate confluence. Cells were first washed in DPBS (Hyclone, Cat #SH30028.03) and then 2 ml of Accutase (MP Biomedicals #1000449) was added at 28° C. until ˜90% of cells were suspended. F12 HAM's media+1 mM L-glutamine (Hyclone, SH30026.02) was then added to the flask to dilute the accutase. Cells were then triturated until a single cell suspension was achieved, a cell count was performed, and cells were centrifuged for 2 min. at 1,000 rpm. Media was then aspirated, and cells were resuspended in Earle's balanced salt solution to a concentration of 0.75×10^6 cells/ml and allowed to recover for 25 min at 10° C.
At the beginning of each assay, 20 μl of cell suspension was dispensed into each well of a multi-hole 384-well SyncroPatch chip by the onboard pipettor. Cell sealing was initiated, and seal enhancer solution was added to facilitate seal formation. Upon completion of sealing, cells were washed 3 times with extracellular recording solution and the assay voltage protocol was started. Human Kv7.2, Kv7.4 or Kv7.5/7.3 channels were evaluated using a voltage protocol in which cells were voltage-clamped at a holding potential of −60 mV. Potassium currents were continuously activated with a series of three voltage steps to −30 mV for 3 seconds, 40 mV for 1 second and −90 mV for 4 seconds with 12 seconds between successive voltage sweeps. Potassium currents were measured from the −90 mV repolarizing step. Baseline current was assessed for 3.5 minutes prior to the addition of 5.6 μM zinc pyrithione (1 μM for Kv7.4). Kv7.2, Kv7.4 or Kv7.5/7.3 current in the presence of zinc pyrithione was acquired over five minutes to allow channels to reach steady state activity prior to addition of test agents. Channel activity was monitored for three minutes preceding the addition of 30 μM ML-213 (3 minutes) to achieve maximum activation. 150 mM TEA with 10 μM XE-991 was applied for 2 minutes to measure the leak current during maximum inhibition of Kv7.2, Kv7.4 or Kv7.5/7.3 channels.
Data were collected on the SyncroPatch platform using PatchControl software (Nanion) and processed and analyzed using DataControl Software (Nanion). Percent activation was calculated from potassium current as follows: The average current for the 5 sweeps in the presence of zinc pyrithione immediately preceding test agent addition was taken as the ‘control’ data. Likewise, the average potassium current in the presence of test agents 5 sweeps immediately preceding addition of 30 μM ML-213 was determined for ‘drug’ data. The average potassium current 5 sweeps immediately prior to addition of 150 mM TEA+10 μM XE-991 was determined for ‘max activation’ data while average currents from 5 sweeps immediately following addition of TEA was determined for ‘max inhibition’ data. Percent activation for each of the 384-wells of a sealchip was calculated as ((‘drug’−‘max inhibition’)/(‘max activation’−‘max inhibition’))*100 with Pipeline Pilot (Accelrys). […]
A general note: In patch-clamp work, channel activity is measured electrically.

Take `COc1cc(CNC(=O)N[C@@H]2C[C@H]2c2ccccc2)ccn1` (racemic) [Example 5, 1-[(2-methoxypyridin-4-yl)methyl]-3-[rac-(1R,2S)-2-phenylcyclopropyl]urea]: the EC50 (usually the concentration at which the effect is half-maximal) came out at 3750 nM and the Emax (usually the greatest response seen or fitted, relative to the assay's reference) was determined as 44%.
Take `[2H]C([2H])(NC(=O)N[C@@H]1C[C@H]1C(F)(F)F)c1ccnc(OC(F)F)c1` (racemic) [Example 50, 1-[dideuterio-[2-(difluoromethoxy)pyridin-4-yl]methyl]-3-[rac-(1R,2R)-2-(trifluoromethyl)cyclopropyl]urea]: the EC50 came to 620 nM and the Emax was determined as 47%.

These data come from patent US20240336571A1, “NOVEL CYCLOPROPYL COMPOUNDS” (ICAGEN, LLC, priority 2021, published 2024).
